SMILES strings stand for the structures. Like-named read-outs stand apart in the source and are kept apart here.

Data set [1] deals with SQR (sulfide:quinone oxidoreductase) (Homo sapiens, UniProt Q9Y6N5). The data set is described as follows: SQR activity of alpha-tocopherol quinones (rate of quinone reduction, absorbance at 266 nm). Type of data set: biochemical. The conditions noted are these: for rate of quinone reduction by SQR: 100 μM quinone, 25 nM SQR, 25° C., pH 7.5. The protocol: SQR activity in the presence of varying concentrations of the isomers of quinone derivatives of Vitamin E was evaluated by monitoring the rate of quinone reduction using the absorbance of the quinone at 266 nm. Assays were conducted at 25° C. and pH 7.5 in a volume of 100 μL in the following buffer system: 100 mM Tris, 0.5 mM EDTA, 1.0% (w/v) Triton X-100 reduced. Sulfide (as Na2S nonahydrate) as reducing substrate and sulfite (as Na2SO3) as sulfur acceptor substrate were held constant at saturating concentrations of 200 μM and 2 mM, respectively. Quinone substrates were added to final concentrations between 0-200 μM from DMSO stock solutions resulting in 2% final concentration of DMSO (enzymatic rates were independent of DMSO concentration in this range). SQR was added at 25 nM.
SQR (sulfide:quinone oxidoreductase), sequence (Q9Y6N5 whole entry): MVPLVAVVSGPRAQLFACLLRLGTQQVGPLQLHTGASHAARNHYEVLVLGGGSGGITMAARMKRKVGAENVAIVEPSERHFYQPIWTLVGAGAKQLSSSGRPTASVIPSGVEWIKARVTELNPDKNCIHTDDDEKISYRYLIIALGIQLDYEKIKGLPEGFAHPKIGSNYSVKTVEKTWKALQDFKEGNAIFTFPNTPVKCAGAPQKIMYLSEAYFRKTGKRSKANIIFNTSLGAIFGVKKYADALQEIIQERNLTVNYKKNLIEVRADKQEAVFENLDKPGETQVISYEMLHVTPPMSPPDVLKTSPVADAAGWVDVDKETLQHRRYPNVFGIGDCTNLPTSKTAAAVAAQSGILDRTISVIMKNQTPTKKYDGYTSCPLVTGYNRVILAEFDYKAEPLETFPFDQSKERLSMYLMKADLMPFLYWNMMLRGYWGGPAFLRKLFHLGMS

The subject of data set [2] is Q7 cells (ST HDH Q7/7; immortalized mouse striatal cells). Put plainly: Q7 striatal cell survival assay upon cystine deprivation. It is filed as cell-based. The conditions noted are these: for EC50: Q7 cell survival after 18 h in cystine-free medium, Cell Titer Glo, read-out: EC50 (nM) geometric mean (n ≥ 3 independent experiments); for potency in rescuing Q7 cells from oxidative stress relative to the RRR isomer: compared with RRR-alpha-tocopherol. The method, then: In neuronal cells excess extracellular glutamate inhibits the cystine/glutamate antiporter leading to intracellular cysteine depletion, GSH depletion, ROS production and cell death, a phenomenon termed oxidative glutamate toxicity or oxytosis. Q7 cells (ST HDH Q7/7; immortalized mouse striatal cells) challenged with cystine-free media recapitulate this phenotype. An initial screen was performed to identify compounds effective in rescuing Q7 cells from death resulting from cystine deprivation. This method is further described in Yonezawa et al., J. Neurochem 67, 566-573 (1996), and Li et al., J Neurosci., 23, 5816-5826 (2003).
DMEM (Catalog no. 11995-040), DMEM without Cystine (Catalog no. 21013-024), PBS (Phosphate buffered saline), Penicillin-streptomycin mix, L-Glutamine and Pyruvate were purchased from Gibco. Fetal Bovine Serum was obtained from Mediatech, Inc. Mouse striatum derived ST HDH Q7/7 (Q7) cells were obtained from Dr. M. MacDonald (Massachusetts General Hospital). Methionine and Vitamin K2 were purchased from Sigma Aldrich. Cell Titer Glo 2.0 was purchased from Promega. Geneticin (G418) Sulfate was purchased from Santa Cruz Biotechnology. Cell culture medium (Growth medium) was made by combining 50 mL Fetal Bovine Serum, 100 U/mL penicillin, 100 microgram/mL streptomycin and 400 microgram/mL Geneticin (G418) Sulfate; DMEM was added to make the volume up to 500 mL. Assay medium (without Cystine) was made by combining 50 mL Fetal Bovine Serum, 100 U/mL penicillin, 100 microgram/mL streptomycin, 4 mM L-Glutamine, 1 mM Pyruvate and 30 mg/L Methionine; DMEM without Cystine was added to make the volume up to 500 mL. During the course of the experiments, these solutions were stored at 4° C. The cells were grown in 10-cm diameter tissue culture-treated dishes. Every fourth day, the cells were subcultured by trypsinization and re-seeding at a cell density of 500,000 cells per dish.
Test samples were supplied in 1.5 mL glass vials. The compounds were diluted with an appropriate volume of DMSO to result in a 1 mM stock solution. Once dissolved, they were stored at −20 ° C.
Q7 cells were cultured routinely as described herein. For 384-well cell survival assays, cells were seeded in clear bottom, black wall 384-well tissue culture-treated polystyrene plates by resuspending a cell suspension at a density of 50,000 cells/mL in growth medium, then dispensing 60 microliters of cell suspension per well using either an electronic multichannel pipette or a Multidrop™ Combi Reagent Dispenser (ThermoFisher Scientific), corresponding to 3,000 cells/well. The cell-containing plates were incubated 5 hours at 33° C. in an atmosphere with 95% humidity and 5% CO2 to allow attachment of the cells to the culture plate. 5 hours after cell seeding into the 384-well assay plate, the cell culture medium was replaced by washing 2 times with 70 microliters/well PBS (without Ca^++ and Mg^++) using a BioTek ELx405 plate washer. After the final aspiration, 60 microliters/well of assay medium (without cystine) was added using the Multidrop™ Combi Reagent Dispenser. […]
After medium change to cystine-free medium and compound addition, cell plates were incubated at 33° C. in an atmosphere of 5% CO2 and 95% humidity. […] After 15 minutes of incubation at room temperature, the luminescence (100 ms integration time) per well was determined using the BioTek Synergy plate reader. […]

A further data set relates to HepG2 cells. Put plainly: Conversion of alpha-tocopherol to the corresponding quinone in HepG2 cells. Type of data set: in vitro ADME. The conditions noted are these: dosed at 1 μM, 3 μM and 10 μM, all three concentrations. The method, then: (§1) DMEM (Catalog no. 11995-040), Penicillin-streptomycin mix, Geneticin (G418) Sulfate were purchased from Thermo Fisher Scientific. Fetal Bovine Serum was obtained from Sigma Aldrich. Mouse striatum-derived ST HDH Q7/7 (Q7) cells were obtained from Dr. M. MacDonald (Massachusetts General Hospital). HepG2 cells were obtained from ATCC. Normal human fibroblast cells (NHF) were obtained from Coriell. Cell culture medium for Q7 cell was prepared by combining 50 mL Fetal Bovine Serum, 100 U/mL penicillin, 100 microgram/mL streptomycin, and 400 microgram/mL Geneticin (G418) Sulfate; DMEM was added to bring the final volume to 500 mL. For HepG2 cells and NHF, cell culture medium was made by combining 50 mL Fetal Bovine Serum, 100 U/mL penicillin, and 100 microgram/mL streptomycin; DMEM was added to bring the final volume to 500 mL. During the course of the experiments, these solutions were stored at 4° C. […]
(§2) Quantification of compounds was determined by mass spectrometry.
The rate of conversion of R,R,R-alpha-tocopherol (black bars) and a 1:1:1:1:1:1:1:1 equimolar mixture of all 8 stereoisomers of alpha-tocopherol (grey bars) to their corresponding quinones was measured in HepG2 cells and is shown in FIG. 2. The percent of total cellular compound in the quinone form was measured at three different dosed concentrations: 1 μM, 3 μM, and 10 μM. […]

Data set [3] relates to Normal human fibroblast cells (NHF). Put plainly: Conversion of alpha-tocopherol to the corresponding quinone in NHF cells. Type of data set: in vitro ADME. The protocol: DMEM (Catalog no. 11995-040), Penicillin-streptomycin mix, Geneticin (G418) Sulfate were purchased from Thermo Fisher Scientific. Fetal Bovine Serum was obtained from Sigma Aldrich. Mouse striatum-derived ST HDH Q7/7 (Q7) cells were obtained from Dr. M. MacDonald (Massachusetts General Hospital). HepG2 cells were obtained from ATCC. Normal human fibroblast cells (NHF) were obtained from Coriell. Cell culture medium for Q7 cell was prepared by combining 50 mL Fetal Bovine Serum, 100 U/mL penicillin, 100 microgram/mL streptomycin, and 400 microgram/mL Geneticin (G418) Sulfate; DMEM was added to bring the final volume to 500 mL. For HepG2 cells and NHF, cell culture medium was made by combining 50 mL Fetal Bovine Serum, 100 U/mL penicillin, and 100 microgram/mL streptomycin; DMEM was added to bring the final volume to 500 mL. During the course of the experiments, these solutions were stored at 4° C. The cells were grown in 150-cm^2 tissue culture-treated flasks until they reached 90% confluency.
Test samples were supplied in 1.5 mL glass vials. The compounds were diluted with an appropriate volume of DMSO to result in a 10 mM stock solution. Once dissolved, they were stored at −20 ° C.
Test samples were applied according to the following protocol:
Q7, HepG2, and NHF Cells were seeded separately in clear bottom, 96-well tissue culture-treated polystyrene plates by resuspending each cell suspension at a density of 200,000 cells/mL in cell culture medium, then dispensing 50 microliters of cell suspension per well using an electronic multichannel pipette, corresponding to 10,000 cells/well. […]
as §2
The rate of conversion of R,R,R-alpha-tocopherol (black bars) and a 1:1:1:1:1:1:1:1 equimolar mixture of all 8 stereoisomers of alpha-tocopherol (grey bars) to their corresponding quinones was measured in NHF cells and is shown in FIG. 3. The percent of total cellular compound in the quinone form was measured at two different dosed concentrations: 3 μM and 10 μM. […]

In data set [4] the test system is Mouse striatum-derived ST HDH Q7/7 (Q7) cells. The data set is described as follows: Conversion of alpha-tocopherol to the corresponding quinone in Q7 cells. It is filed as in vitro ADME. The conditions noted are these: dosed at 1 μM, 3 μM and 10 μM, all three concentrations. The method, then:
as §1, §2
The rate of conversion of R,R,R-alpha-tocopherol (black bars) and a 1:1:1:1:1:1:1:1 equimolar mixture of all 8 stereoisomers of alpha-tocopherol (grey bars) to their corresponding quinones was measured in Q7 cells and is shown in FIG. 4. The percent of total cellular compound in the quinone form was measured at three different dosed concentrations: 1 μM, 3 μM, and 10 μM. […]

For `CC1=C(C)C(=O)C(CC[C@](C)(O)CCC[C@H](C)CCC[C@H](C)CCCC(C)C)=C(C)C1=O` [R,R,R-alpha-tocopherol quinone, (R,R,R)-alpha-tocopherol quinone], in data set [1] (100 μM each), the “reduction rate relative to the corresponding S,R,R stereoisomer” value is “more than twice”. The “rate of quinone reduction by SQR” value in data set [1] is on record as “around 125 nM/s”. The “rate of SQR reduction as a function of concentration” value in data set [1] (in the absence of the S,R,R isomer) is “increases with increasing R,R,R-alpha-tocopherol quinone concentration”. The “rate of SQR reduction, upper limit with increasing concentration of the R,R,R isomer” value in data set [1] (in the presence of S,R,R-alpha-tocopherol quinone) is given as ≤ 100 nM/s.

As to `Cc1c(C)c2c(c(C)c1O)CC[C@@](C)(CCC[C@H](C)CCC[C@H](C)CCCC(C)C)O2` [RRR-alpha-tocopherol, (R,R,R)-alpha-tocopherol], the EC50 in data set [2] (Mus musculus) was 175 nM. For the same molecule, the “percent of compound converted to the quinone form, compared with mixture of all 8 stereoisomers” value is given as “higher” in the data set with HepG2 cells; “higher” in data set [3] (dosed at 3 μM and 10 μM, both concentrations); “higher” in data set [4]. The figures for the “percent of compound converted, times higher than the mixture of all 8 stereoisomers” value in data set [3] (3 μM) and in data set [3] (10 μM) were “approximately 3 times” and “approximately 2 times”, respectively.

Turning to `Cc1c(C)c2c(c(C)c1O)CCC(C)(CCCC(C)CCCC(C)CCCC(C)C)O2` (single isomer, unassigned) [Equal mixture of all 8 stereoisomers of alpha-tocopherol, all-rac alpha-tocopherol], in data set [2], the EC50 came out at 313 nM and the “potency in rescuing Q7 cells from oxidative stress relative to the RRR isomer” value is on record as “approximately half as potent as the RRR isomer”.

Take `Cc1c(C)c2c(c(C)c1O)CC[C@](C)(CCC[C@H](C)CCC[C@H](C)CCCC(C)C)O2` [SRR-alpha-tocopherol]: the EC50 in data set [2] (Mus musculus) amounted to 372 nM. Moreover, in data set [2], the “potency in rescuing Q7 cells from oxidative stress relative to the RRR isomer” value is listed as “approximately half as potent as the RRR isomer”.

For `CC1=C(C)C(=O)C(CC[C@](C)(O)CCC[C@H](C)CCC[C@H](C)CCCC(C)C)=C(C)C1=O` [S,R,R-alpha-tocopherol quinone, reference compound], the “rate of quinone reduction by SQR” value in data set [1] is “about 50 nM/s”. For the same molecule, in data set [1] (1:1 mixture versus pure R,R,R isomer), the “effect on the activity of the R,R,R isomer (SQR activity)” value was “inhibitory effect”.

One may read the EC50 as the concentration that produces a half-maximal response.

For the origin of these results see patent publication US20180333389A1, “VITAMIN E COMPOSITIONS AND METHODS OF USE THEREFOR” (BIOELECTRON TECHNOLOGY CORPORATION, priority 2017, published 2018).
